{"source": "patent US8697141B2", "about": "“Method and composition for preventing and healing osteonecrosis of the jaw” (Micropure, Inc., priority 2008, dated 2014)", "origin": "cited, not measured here", "key": {"[1]": {"system": "ONJ", "settings": "oral users, 208 patients"}, "[2]": {"system": "osteoblasts", "settings": "dose and time dependent"}, "[3]": {"system": "fibroblasts", "settings": "dose and time dependent"}, "[4]": {"system": "endothelial cells", "settings": "dose and time dependent"}, "[5]": {"system": "ONJ", "settings": "0.12% chlorhexidine; out of 24 patients"}, "[6]": {"system": "human gingival fibroblasts", "settings": "chlorhexidine at 0.12%"}, "[7]": {"system": "periodontal ligament cells", "settings": "chlorhexidine at 0.12%"}, "[8]": {"system": "osteoblasts", "settings": "chlorhexidine at 0.12%"}, "[9]": {"system": "human osteoblast-like cells", "settings": "high concentrations over a prolonged time interval"}, "[10]": {"system": "C. albicans", "settings": "time and dose dependent"}, "[11]": {"system": "human gingival fibroblasts", "settings": "0.05 mM"}, "[12]": {"system": "bone vascularity", "settings": "rats"}, "[13]": {"system": "capillary neoangiogenesis"}, "[14]": {"system": "human gingival fibroblasts", "settings": "low concentrations"}, "[15]": {"system": "keratinocytes", "settings": "low concentrations"}, "[16]": {"system": "S. mutans", "settings": "200 ppm, within 10 seconds of application"}, "[17]": {"system": "Bacteroides gingivalis", "settings": "200 ppm, at several time points and different pH"}, "[18]": {"system": "DUWL biofilms", "settings": "after 5 days of treatment"}, "[19]": {"system": "bacteria", "settings": "exposures as short as 10 seconds"}, "[20]": {"settings": "in vivo"}}, "note": "Read-outs that look alike come from different tables or passages of the source."}
{"molecule": "NCCCC(O)(P(=O)(O)O)P(=O)(O)O", "note": "[alendronate]", "values": [{"measurement": "ONJ prevalence rate", "setting": "[1]", "value": 4, "unit": "%"}]}
{"molecule": "N=C(NCCCCCCNC(=N)NC(=N)Nc1ccc(Cl)cc1)NC(=N)Nc1ccc(Cl)cc1.O=C(O)[C@H](O)[C@@H](O)[C@H](O)[C@H](O)CO.O=C(O)[C@H](O)[C@@H](O)[C@H](O)[C@H](O)CO", "note": "[chlorhexidine digluconate]", "values": [{"measurement": "apoptosis and necrosis", "setting": "[2]", "value": "induced apoptosis and led to necrosis"}, {"measurement": "apoptosis and necrosis", "setting": "[3]", "value": "induced apoptosis and led to necrosis"}, {"measurement": "apoptosis and necrosis", "setting": "[4]", "value": "induced apoptosis and led to necrosis"}]}
{"molecule": "[H]/N=C(\\N/C(=N/[H])NCCCCCCNC(=N)NC(=N)Nc1ccc(Cl)cc1)Nc1ccc(Cl)cc1", "note": "[chlorhexidine]", "values": [{"measurement": "patients with ONJ progression", "setting": "[5]", "value": 13, "unit": "patients"}, {"measurement": "patients with ONJ resolution", "setting": "[5]", "value": 3, "unit": "patients"}, {"measurement": "patients with no change in ONJ status", "setting": "[5]", "value": 8, "unit": "patients"}, {"measurement": "LDH release compared with controls", "setting": "[6]", "value": "elevated and significant LDH release"}, {"measurement": "LDH release compared with controls", "setting": "[7]", "value": "elevated and significant LDH release"}, {"measurement": "LDH release compared with controls", "setting": "[8]", "value": "elevated and significant LDH release"}, {"measurement": "cell survival", "setting": "[9]", "value": "adverse effect on the survival"}]}
{"molecule": "[O][Cl+][O-]", "note": "[chlorine dioxide]", "values": [{"measurement": "potassium leakage", "setting": "[10]", "value": "marked increase"}, {"measurement": "induction of apoptosis", "setting": "[11]; 0.1 mM and 0.5 mM ClO2", "value": "not to induce apoptosis significantly"}]}
{"molecule": "OO", "note": "[hydrogen peroxide]", "values": [{"measurement": "induction of apoptosis", "setting": "[11]; 1.0 mM", "value": "induced apoptosis at all concentrations tested"}]}
{"molecule": "NCCC(O)(P(=O)(O)O)P(=O)(O)O", "note": "[pamidronate]", "values": [{"measurement": "bone vascularity", "setting": "[12]", "value": "reduce bone vascularity"}, {"measurement": "new formation of capillaries from blood vessels", "setting": "[13]", "value": "inhibit the new formation of capillaries from blood vessels"}]}
{"molecule": "O=P(O)(O)C(O)(Cn1ccnc1)P(=O)(O)O", "note": "[zoledronic acid]", "values": [{"measurement": "apoptosis of oral mucosal cells", "setting": "[14]", "value": "gene-regulated induced apoptosis"}, {"measurement": "apoptosis of oral mucosal cells", "setting": "[15]", "value": "gene-regulated induced apoptosis"}]}
{"molecule": "stabilized chlorine dioxide", "values": [{"measurement": "in vitro kill rate", "setting": "[16]", "value": 99, "unit": "%"}, {"measurement": "in vitro kill", "setting": "[17]", "value": 100, "unit": "%"}, {"measurement": "LDH release compared with controls", "setting": "[6]", "value": "did not increase the release of LDH"}, {"measurement": "LDH release compared with controls", "setting": "[7]", "value": "did not increase the release of LDH"}, {"measurement": "LDH release compared with controls", "setting": "[8]", "value": "did not increase the release of LDH"}, {"measurement": "heterotrophic plate count (HPC) value", "setting": "[18]", "value": 0}, {"measurement": "reduction in bacteria", "setting": "[19]", "value": "dramatic reduction in bacteria"}, {"measurement": "VSCs in expired mouth air", "setting": "[20]", "value": "remarkable decrease in VSCs"}]}
